The record followed here is patent US20250152586A1, “PHARMACEUTICAL COMPOSITION FOR RELIEVING OR TREATING PAIN BY REGULATING CEREBELLAR GLIAL CELLS AND METHOD FOR RELIEVING OR TREATING PAIN” (Seoul National University R&DB Foundation, priority 2021, published 2025).

Structures can show the parent of a compound that is named as a salt.

Data set [1] in a line: Basic motor function, ledge test and gait test. The class given is in vivo, mice. The settings on record: vs control. Here is the method: To confirm whether basic behavioral patterns were affected when the activity of cerebellar glial cells was regulated, basic movements were measured by placing the mice in a chamber measuring 40 cm in length and width (FIG. 1D).
A ledge test was first performed to measure motor coordination. […] A score closer to 3 was determined to be normal, and a score closer to 0 was determined to be abnormal motor coordination. (FIG. 1E, ledge test).
A gait test was secondly performed to measure motor coordination. An experimenter measured the mouse's walking pattern without being observed. […] A score closer to 3 was determined to be normal, and a score closer to 0 was determined to be abnormal motor coordination (FIG. 1E, gait test).

Data set [2] addresses T1, hM4D (Gi) expressed in locus coeruleus cells (Homo sapiens, UniProt P08173, A203G/Y113C).
T1 construct: expressed in transfected cells; host or cells: mouse locus coeruleus cells, transduced in vivo by virus; agonist C21 applied at their axon terminals in the cerebellar cortex
T1 sequence (P08173 1-479 Y113C/A203G): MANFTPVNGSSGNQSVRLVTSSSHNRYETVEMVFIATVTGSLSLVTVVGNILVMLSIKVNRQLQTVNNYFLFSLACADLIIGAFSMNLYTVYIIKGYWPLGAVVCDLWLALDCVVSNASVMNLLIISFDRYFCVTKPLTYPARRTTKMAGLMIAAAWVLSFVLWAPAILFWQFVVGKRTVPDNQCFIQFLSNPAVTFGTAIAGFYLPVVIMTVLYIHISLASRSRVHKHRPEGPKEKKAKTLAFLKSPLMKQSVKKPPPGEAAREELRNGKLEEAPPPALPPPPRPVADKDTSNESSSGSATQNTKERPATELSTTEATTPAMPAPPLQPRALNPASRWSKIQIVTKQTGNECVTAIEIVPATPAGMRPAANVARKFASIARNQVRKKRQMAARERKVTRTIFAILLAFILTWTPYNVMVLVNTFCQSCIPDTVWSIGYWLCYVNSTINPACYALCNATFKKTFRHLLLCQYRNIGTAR
The experiment in a line: Capsaicin-induced pain licking time with chemogenetic inhibition of the axon terminals of locus coeruleus cells in the cerebellum (hM4D (Gi) activated by C21). The class given is in vivo, mice. The settings on record: 0.5 μl of 1 mM C21 into cerebellar cortex via cannula (vermis lobule IV/V), hM4D (Gi) in LC, about 10 minutes after, vs control; FIG. 3B. The method, then: (§1) 1-2. Drug Injection For chemogenetic inhibition of cerebellar glial cells, CNO was injected intraperitoneally at a dose of 5 to 10 mg/kg. For chemogenetic inhibition of locus coeruleus cells, 0.5 μl of 1 mM C21 was directly injected into the cerebellar cortex through a cannula installed in cerebellar vermis lobule IV/V. Prazosin (100 μM, 0.5 μl) and muscimol (100 μM, 0.5 μl), which are alpha-1 adrenergic receptor inhibitors or GABAA agonists, were injected through cannulas targeting the cerebellar cortex and cerebellar nuclei, respectively.
(§2) To confirm the pain pattern caused by capsaicin, the degree of pain was recorded for a total of 30 minutes, 10 minutes before the injection of capsaicin and 20 minutes after the injection of capsaicin (FIG. 1B).
Using non-genetically modified wild-type mice, a specific chemogenetic inhibitory virus which targets locus coeruleus cells was injected. […] Further, in this case, to confirm that the inhibition of the axon terminals of the locus coeruleus only affected the pain pattern, basic motor function was measured using the ledge test and gait test described above in Example 1-3. […]

Data set [3] addresses T2, hM4D (Gi) expressed in cerebellar glial cells (vermis lobule IV/V) (Homo sapiens, UniProt P08173, A203G/Y113C).
T2 construct: expressed in transfected cells; host or cells: mouse cerebellar glial cells (vermis lobule IV/V), transduced in vivo by virus
T2 sequence (P08173 1-479 Y113C/A203G): T1 sequence (P08173 1-479 Y113C/A203G)
Nature of the data set: Capsaicin-induced pain licking time with chemogenetic inhibition of cerebellar glial cells (hM4D (Gi) activated by CNO). It counts as in vivo, mice. The settings on record: CNO intraperitoneal 5 to 10 mg/kg, about 1 hour after, vs control, FIG. 2B.
Description: Using non-genetically modified wild-type mice, a specific chemogenetic inhibitory virus which targets cerebellar glial cells was injected. […] Therefore, CNO, an agonist capable of activating the corresponding virus, was injected intraperitoneally at a dose of 5 to 10 mg/kg. Behavioral experiments were performed about 1 hour after glial cells were inhibited (FIG. 2A).

In data set [4] the test system is GABAA receptor. Nature of the data set: Capsaicin-induced pain licking time after local injection of muscimol into the deep cerebellar nuclei. It counts as in vivo, mice. The settings on record: muscimol 100 μM, 0.5 μl, local into deep cerebellar nuclei (DCN) via cannula, 10 minutes after, vs control; FIG. 6B. Here is the method: as §1, §2
Information processed in the cerebellar cortex converges to the cerebellar nuclei. To investigate the pain pattern induced by capsaicin when the cerebellar nuclei, the target of cerebellar output, were inhibited, the deep cerebellar nuclei (DCN) region was locally administered muscimol (100 μM, 0.5 μl), an inhibitory neurotransmitter GABAA receptor agonist, through a cannula. The licking time was measured 10 minutes after the injection when the effect of muscimol appeared (FIG. 6A).

Data set [5] concerns alpha-1 adrenergic receptors in cerebellar glial cells. Nature of the data set: Capsaicin-induced pain licking time after local injection of prazosin into the cerebellum. It counts as in vivo, mice. The settings on record: prazosin 100 μM, 0.5 μl, local into cerebellum (vermis lobule IV/V) via cannula, about 10 minutes after, vs control; FIG. 4B. Here is the method: as §1, §2
Alpha-1 adrenergic receptors in cerebellar glial cells are activated by norepinephrine. To inhibit this, prazosin (100 μM, 0.5 μl), an alpha-1 adrenergic receptor antagonist, was locally injected only into the cerebellum (vermis lobule IV/V) via a cannula. Thereafter, behavioral experiments were performed about 10 minutes after the alpha-1 adrenergic receptors were inhibited (FIG. 4A).

Data set [6] has as its system cerebellar glial cell-specific alpha-1 adrenergic receptors. Nature of the data set: Capsaicin-induced pain licking time after knockdown with cerebellar glial cell-specific shRNA. It counts as in vivo. The settings on record: Cre-dependent shRNA virus in Glast-Cre/ERT mice after tamoxifen, vs control; FIG. 5B. Here is the method: Using non-genetically modified wild-type mice, a specific chemogenetic inhibitory virus which targets cerebellar glial cells and locus coeruleus cells was injected. To specifically remove alpha1-adrenergic receptors from cerebellar glial cells, using Glast-Cre (Tg(Slcla3-Cre/ERT) 1Nat/J), a genetically modified mouse in which Cre is expressed by tamoxifen specifically in only cerebellar glial cells, Cre was expressed by injecting tamoxifen, and then a virus that removes the alpha1-adrenergic receptor in a Cre-dependent manner was injected.
as §2
As another approach to prevent the activity of cerebellar glial cells, alpha-1 adrenergic receptors were inhibited using cerebellar glial cell-specific shRNA. To specifically remove alpha1-adrenergic receptors from cerebellar glial cells, using Glast-Cre (Tg(Slcla3-Cre/ERT) 1Nat/J), a genetically modified mouse in which Cre is expressed by tamoxifen specifically in only cerebellar glial cells, Cre was expressed by injecting tamoxifen, and then a virus that removes the alpha1-adrenergic receptor in a Cre-dependent manner was injected. Glast-cre (Tg(Slcla3-cre/ERT) 1 Nat/J) mice were purchased from Jackson Labs, USA. […]

For `Cl.Cl.c1ccc2c(c1)N=C(N1CCNCC1)c1ccccc1N2` [C21, DREADD agonist 21(Compound 21)], the “basic motor performance (ledge test and gait test)” value (from here on “basic motor performance”) in data set [1] (0.5 μl of 1 mM C21 into cerebellar cortex, hM4D (Gi) in LC, FIG. 3C) is given as “no significance difference”. Moreover, the “licking time (pain induced by capsaicin)” value in data set [2] was “significantly reduced”.

For `C[N+]1([O-])CCN(C2=Nc3cc(Cl)ccc3Nc3ccccc32)CC1.Cl.Cl` [CNO, Clozapine N-oxide (CNO) dihydrochloride], the “licking time (pain induced by capsaicin)” value in data set [3] was “significantly reduced”. Regarding `NCc1cc(=O)[nH]o1` [muscimol, Muscimol], the “basic motor performance” value in data set [1] (muscimol 100 μM, 0.5 μl, local into DCN, FIG. 6C) is “no significance difference”. For the same compound, the “licking time (pain induced by capsaicin)” value in data set [4] is recorded as “significantly reduced”. In the case of `COc1cc2nc(N3CCN(C(=O)c4ccco4)CC3)nc(N)c2cc1OC` [prazosin, Prazosin hydrochloride], the “basic motor performance” value in data set [1] (prazosin 100 μM, 0.5 μl, local into cerebellum, FIG. 4C) is recorded as “no significance difference”. Besides, in data set [5], the “licking time (pain induced by capsaicin)” value is given as “significantly reduced”. As for “shRNA: Cre-dependent cerebellar glial cell-specific shRNA (534-558) against alpha-1 adrenergic receptor, GAGCCACACTTAGCTAACCATTTCA (guide GAGCCACACUUAGCUAACCAUUUCA)”, in data set [6], the “licking time (pain induced by capsaicin)” value was “significantly reduced”.
